Reference: US5254565A, “Quinoline derivatives, their production and use” (priority 1988, dated 1993)

Legend:
[1] = target: T1, Acyl-CoA : cholesterol acyltransferase (ACAT) (Rattus norvegicus, UniProt Q7TQM4); experiment: Acyl-CoA : cholesterol acyltransferase (ACAT) inhibitory activity: production of labeled cholesterol ester from [1-^14 C] oleoyl-CoA and endogenous cholesterol; format: biochemical; settings: read-out: ACAT Inhibition Rate; for inhibition at 1 µM: 10^-6 M test compound; for inhibition at 0.01 µM: 10^-8 M test compound
T1 construct: from the mucosal microsome fraction of the small intestine of male, 6-week old Sprague-Dawley rats; from tissue; host or cells: mucosal microsome fraction of the small intestine of male 6-week old Sprague-Dawley rats, fasted for 20 hours
T1 sequence (Q7TQM4 1-524): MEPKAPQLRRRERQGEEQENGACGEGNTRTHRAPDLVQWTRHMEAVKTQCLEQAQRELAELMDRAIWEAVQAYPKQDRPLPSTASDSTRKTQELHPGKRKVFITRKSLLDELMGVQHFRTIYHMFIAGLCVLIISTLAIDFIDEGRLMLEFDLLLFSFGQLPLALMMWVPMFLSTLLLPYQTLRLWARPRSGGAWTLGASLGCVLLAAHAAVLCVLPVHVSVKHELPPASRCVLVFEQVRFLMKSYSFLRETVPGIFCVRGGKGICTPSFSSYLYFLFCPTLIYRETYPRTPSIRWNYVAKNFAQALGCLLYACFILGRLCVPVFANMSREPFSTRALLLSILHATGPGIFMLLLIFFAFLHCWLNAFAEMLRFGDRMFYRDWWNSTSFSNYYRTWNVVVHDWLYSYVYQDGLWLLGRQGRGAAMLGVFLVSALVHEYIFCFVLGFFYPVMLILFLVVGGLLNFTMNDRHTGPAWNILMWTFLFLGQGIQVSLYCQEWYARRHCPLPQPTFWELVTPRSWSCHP
Protocol: 1. Acyl-CoA : cholesterol acyltransferase (ACAT) inhibitory activity.
The enzyme ACAT was prepared by the method of Heider et al. described in Journal of Lipid Research, Vol. 24, page 1127 (1982), from the mucosal microsome fraction of the small intestine of male, 6-week old Sprague-Dawley rats which had been fasted for 20 hours.
ACAT activity was calculated by the method of Helgerud et al. described in Journal of Lipid Research, Vol. 22, page 271 (1981), namely, by measuring the amount of the labeled cholesterol ester produced from [1-^14 C] oleoyl-CoA and endogenous cholesterol.
Inhibition rates (%) of the production of the labeled cholesterol ester wherein 10^-6 M-10^-8 M of test compounds were added are shown as an index of ACAT inhibitory activity in Table 1.

[2] = tested on: plasma cholesterol; experiment: Plasma cholesterol lowering activity in cholesterol fed rat; format: in vivo, rat (7-week old, male Sarague Dawley rats); settings: diet containing 0.0005% of test compound for 4 days; mean ± standard deviation; control 240 ± 85; *p < 0.05 (t test vs control group); Dose (mg/kg/day): 23 0.40 ± 0.03, 30 0.45 ± 0.02, 32 0.43 ± 0.04
Protocol: 2. Plasma cholesterol lowering activity in cholesterol fed rat.
1% Cholesterol diet (containing 0.5% of cholic acid and 5% of olive oil) was fed to 7-week old, male Sarague Dawley rats for 3 days. The rats were grouped by the plasma cholesterol level, and fed by the same diet containing 0.0005% of a test compound for 4 days. Blood was collected from rats during 8:30-10:00 am at the fed state, and the plasma cholesterol level was measured enzymatically. The amount of a test compound consumed by rats was calculated on the basis of the amount of the diet consumed by the rats.

Compound	inhibition at 1 µM [1]	other results
Cc1cc(C)c2ncc(NC(=O)Nc3ccc(F)cc3F)c(-c3ccccc3Cl)c2c1 [Example 32, 4-(2-Chlorophenyl)-3-[3-(2,4-difluorophenyl)ureido]-6,8-dimethylquinoline]	98.9%	inhibition at 0.01 µM [1]: 52.1%; Plasma Cholesterol [2]: 119 ± 46 mg/dL
Cc1cc(Cl)c2ncc(NC(=O)Nc3ccc(F)cc3F)c(-c3ccccc3Cl)c2c1 [Example 55, 8-Chloro-4-(2-chlorophenyl)-3-[3-(2,4-difluorophenyl)ureido]-6-methylquinoline]	97.6%	
COc1ccc(-c2c(NC(=O)Nc3ccc(F)cc3F)cnc3ccc(Cl)cc23)c(O)c1OC [Example 69, 6-Chloro-3-[3-(2,4-difluorophenyl)ureido]-4-(2-hydroxy-3,4-dimethoxyphenyl)quinoline]	78.2%	
COc1ccccc1-c1c(NC(=O)Nc2ccc(F)cc2F)cnc2ccc(Cl)cc12 [Example 29]	98.2%	
CC(C)c1ccc2ncc(NC(=O)Nc3ccc(F)cc3F)c(-c3ccccc3Cl)c2c1 [Example 34, 4-(2-Chlorophenyl)-3-[3-(2,4-difluorophenyl)ureido]-6-isopropylquinoline]	99.3%	
CCc1ccc2ncc(NC(=O)Nc3ccc(F)cc3F)c(-c3ccccc3Cl)c2c1 [Example 33, 4-(2-Chlorophenyl)-3-[3-(2,4-difluorophenyl)ureido]-6-ethylquinoline]	99.2%	
Cc1cc(C)c2ncc(NC(=O)Nc3cc(C)c(O)c(C)c3C)c(-c3ccccc3Cl)c2c1 [Example 81, 4-(2-Chlorophenyl)-3-[3-(4-hydroxy-2,3,5-trimethylphenyl)ureido]-6,8-dimethylquinoline]	97.9%	
Cc1cc(C)c2c(c1)c(-c1ccccc1Cl)c(NC(=O)Nc1ccc(F)cc1F)c[n+]2[O-] [Example 63, 4-(2-chlorophenyl)-3-[3-(2,4-difluorophenyl)ureido]-6,8-dimethylquinoline 1-oxide]	94.4%	
Cc1cc(C)c2ncc(NC(=O)Nc3c(F)cc(F)cc3F)c(-c3ccccc3Cl)c2c1 [Example 62, 4-(2-chlorophenyl)-6,8-dimethyl-3-[3-(2,4,6-trifluorophenyl)ureido]quinoline]	97.3%	
Cc1ccccc1-c1c(NC(=O)Nc2ccc(F)c([N+](=O)[O-])c2)cnc2ccc(Cl)cc12 [Example 58, 6-Chloro-3-[3-(4-fluoro-3-nitrophenyl)ureido]-4-(2-methylphenyl)quinoline]	88.5%	
O=C(Nc1ccc(F)cc1F)Nc1cnc2ccc(Cl)cc2c1-c1cccc(Cl)c1 [Example 24, 6-Chloro-4-(3-chlorophenyl)-3-[3-(2,4-difluorophenyl)ureido]quinoline]	88.5%	
CC(=O)Oc1c(C)cc(NC(=O)Nc2cnc3c(C)cc(C)cc3c2-c2ccccc2Cl)c(C)c1C [Example 78, 3-[3-(4-Acetoxy-2,3,5-trimethylphenyl)ureido]-4-(2-chlorophenyl)-6,8-dimethylquinoline]	98.2%	

Now from value to compound, other results behind:

inhibition at 1 µM [1]	Compound	other results
98.5%	Cc1ccc2ncc(NC(=O)Nc3ccc(F)cc3F)c(-c3ccccc3Cl)c2c1 [Example 30, 4-(2-Chlorophenyl)-3-[3-(2,4-difluorophenyl)ureido]-6-methylquinoline]	Plasma Cholesterol [2]: 143 ± 21 mg/dL
90.1%	CCc1ccc2ncc(NC(=O)Nc3ccc(F)cc3F)c(-c3ccccc3)c2c1 [Example 14, 3-[3-(2,4-Difluorophenyl)ureido]-6-ethyl-4-phenylquinoline]	
90.1%	O=C(Nc1ccc(F)cc1F)Nc1cnc2ccc(C(F)(F)F)cc2c1-c1ccccc1 [Example 17, 3-[3-(2,4-Difluorophenyl)ureido]-4-phenyl-6-trifluoromethylquinoline]	
88.3%	O=C(Nc1ccc(F)cc1F)Nc1cnc2ccc(Cl)cc2c1-c1ccccc1 [Example 1, 6-chloro-3-[3-(2,4-difluorophenyl)ureido]-4-phenylquinoline]	
87.8%	CSc1ccc2ncc(NC(=O)Nc3ccc(F)cc3F)c(-c3ccccc3)c2c1 [Example 37, 3-[3-(2,4-Difluorophenyl)ureido]-6-methylthio-4-phenylquinoline]	
84.5%	Cc1ccc2ncc(NC(=O)Nc3ccc(F)cc3F)c(-c3ccccc3)c2c1 [Example 13, 3-[3-(2,4-Difluorophenyl)ureido]-6-methyl-4-phenylquinoline]	
97.5%	CSc1ccccc1-c1c(NC(=O)Nc2ccc(F)cc2F)cnc2ccc(C)cc12 [Example 59, 3-[3-(2,4-Difluorophenyl)ureido]-6-mehtyl-4-(2-mehtylthiophenyl)quinoline]	
98%	O=C(Nc1ccc(F)cc1F)Nc1cnc2ccc(Cl)cc2c1-c1ccccc1Cl [Example 23, 6-Chloro-4-(2-chlorophenyl)-3-[3-(2,4-difluorophenyl)ureido]quinoline]	inhibition at 0.1 µM ([1]; 10^-7 M test compound): 94.1%; inhibition at 0.01 µM [1]: 34.3%; Plasma Cholesterol [2]: 126 ± 33 mg/dL
95.6%	O=C(Nc1ccc(F)cc1F)Nc1cnc2ccc(F)cc2c1-c1ccccc1Cl [Example 36, 4-(2-Chlorophenyl)-3-[3-(2,4-difluorophenyl)ureido]-6-fluoroquinoline]	
